Results taken from ChEMBL document CHEMBL1201862, “PubChem BioAssay data set” (2004).
Active and inactive are the calls of the source.

What was measured:
Aspartyl aminopeptidase = Aspartyl aminopeptidase (Plasmodium falciparum 3D7, UniProt Q8I2J3)
Procathepsin L = Procathepsin L (Homo sapiens, UniProt P07711)
[1] = target: T1, Short transient receptor potential channel 4 (Mus musculus, UniProt Q9QUQ5); experiment: mouse TRPC4 channel inhibitors, dose response, cell-based, HEK293 TRPC4/mu-opioid, Fluo-4 calcium (AID 434942); format: functional;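 also: potency of inhibitors blocking the TRPC4 calcium response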
T1 sequence (Q9QUQ5 whole entry): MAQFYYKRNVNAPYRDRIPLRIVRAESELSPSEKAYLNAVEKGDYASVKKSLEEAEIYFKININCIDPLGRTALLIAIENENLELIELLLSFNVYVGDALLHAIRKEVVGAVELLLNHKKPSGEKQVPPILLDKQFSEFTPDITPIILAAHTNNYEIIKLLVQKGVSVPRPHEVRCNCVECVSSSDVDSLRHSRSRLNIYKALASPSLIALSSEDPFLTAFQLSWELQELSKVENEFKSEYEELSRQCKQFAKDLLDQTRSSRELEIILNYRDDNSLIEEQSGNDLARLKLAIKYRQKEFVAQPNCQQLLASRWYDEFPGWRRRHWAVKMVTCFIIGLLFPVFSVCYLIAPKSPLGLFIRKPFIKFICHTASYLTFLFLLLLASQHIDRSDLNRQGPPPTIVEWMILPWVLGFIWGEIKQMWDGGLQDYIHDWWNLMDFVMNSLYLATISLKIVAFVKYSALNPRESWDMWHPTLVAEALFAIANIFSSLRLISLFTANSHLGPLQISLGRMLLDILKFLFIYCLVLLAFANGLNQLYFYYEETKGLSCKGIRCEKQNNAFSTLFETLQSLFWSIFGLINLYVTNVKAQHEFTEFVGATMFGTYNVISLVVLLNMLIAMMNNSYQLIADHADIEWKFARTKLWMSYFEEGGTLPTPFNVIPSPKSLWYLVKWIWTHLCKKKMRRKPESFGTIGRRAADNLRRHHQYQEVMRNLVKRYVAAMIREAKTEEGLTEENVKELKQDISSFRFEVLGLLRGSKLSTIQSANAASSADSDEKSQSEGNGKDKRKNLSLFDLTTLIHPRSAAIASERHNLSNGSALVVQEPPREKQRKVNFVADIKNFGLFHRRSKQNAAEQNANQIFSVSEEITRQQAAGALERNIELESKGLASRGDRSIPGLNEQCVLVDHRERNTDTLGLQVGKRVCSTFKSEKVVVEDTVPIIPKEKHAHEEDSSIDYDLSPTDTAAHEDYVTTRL

[2] = target: T2, E3 ubiquitin-protein ligase XIAP (Homo sapiens, UniProt P98170); experiment: Counter Screen using XIAP-Bir3 for Chemical Antagonists of Bir1/2 domains of IAP-family anti-apoptotic proteins. [Related pubchem assays (depositor defined):AID1018, AID1449, AID1514, AID1638, AID1749, AID1750, AID488957, AID488963]
T2 sequence (P98170 whole entry): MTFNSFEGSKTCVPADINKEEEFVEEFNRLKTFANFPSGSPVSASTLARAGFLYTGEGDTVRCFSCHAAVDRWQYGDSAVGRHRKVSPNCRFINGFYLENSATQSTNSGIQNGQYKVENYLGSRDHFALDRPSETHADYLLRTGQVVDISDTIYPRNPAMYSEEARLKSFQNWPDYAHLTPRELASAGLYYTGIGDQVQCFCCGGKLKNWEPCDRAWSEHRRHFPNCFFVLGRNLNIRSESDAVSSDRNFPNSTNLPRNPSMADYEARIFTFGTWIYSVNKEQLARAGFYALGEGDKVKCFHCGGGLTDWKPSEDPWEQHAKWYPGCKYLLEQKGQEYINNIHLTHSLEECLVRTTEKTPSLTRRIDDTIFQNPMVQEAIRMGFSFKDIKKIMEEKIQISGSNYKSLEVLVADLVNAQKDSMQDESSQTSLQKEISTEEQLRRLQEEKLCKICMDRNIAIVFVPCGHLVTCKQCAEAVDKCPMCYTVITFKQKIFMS

[3] = target: T2, E3 ubiquitin-protein ligase XIAP; experiment: XIAP antagonists, biochemical, IAP family, fluorescence polarization (AID 1018); format: functional
[4] = HepG2 cell cytotoxicity, dose response, cytotoxicity control, ATP luminescence, cherry-pick, activator set 2 (AID 1053143); format: functional, cell-based
[5] = target: Lysosomal acid glucosylceramidase (Homo sapiens, UniProt P04062); experiment: Dose response cell-based high throughput screening assay to identify enhancers of beta-glucosidase activity. [Related pubchem assays: 784 ]; format: functional
Lysosomal acid glucosylceramidase, sequence (P04062 whole entry): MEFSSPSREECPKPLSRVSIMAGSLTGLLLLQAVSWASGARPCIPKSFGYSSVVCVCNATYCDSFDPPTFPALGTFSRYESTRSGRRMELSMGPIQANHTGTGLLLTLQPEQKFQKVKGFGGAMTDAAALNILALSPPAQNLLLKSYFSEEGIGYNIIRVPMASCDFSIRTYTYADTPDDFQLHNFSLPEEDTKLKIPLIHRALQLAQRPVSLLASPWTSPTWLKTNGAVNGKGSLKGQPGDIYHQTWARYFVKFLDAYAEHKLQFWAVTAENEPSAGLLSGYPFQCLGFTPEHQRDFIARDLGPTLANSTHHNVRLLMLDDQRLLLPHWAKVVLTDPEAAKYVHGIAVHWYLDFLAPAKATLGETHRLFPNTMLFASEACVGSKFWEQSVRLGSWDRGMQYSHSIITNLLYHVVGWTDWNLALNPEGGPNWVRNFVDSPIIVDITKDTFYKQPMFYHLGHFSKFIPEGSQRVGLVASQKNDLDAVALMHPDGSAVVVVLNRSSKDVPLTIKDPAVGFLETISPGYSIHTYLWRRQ

[6] = target: Scavenger receptor class B member 1 (Mus musculus, UniProt Q61009); experiment: inhibitors of SR-BI mediated HDL lipid uptake, dose response, ldlA[mSR-BI] cells, fluorescence, cherry pick (AID 493194); format: functional, cell-based;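 also: cellular uptake of fluorescent DiI-labeled HDL measured as cell fluorescence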
Scavenger receptor class B member 1, sequence (Q61009 whole entry): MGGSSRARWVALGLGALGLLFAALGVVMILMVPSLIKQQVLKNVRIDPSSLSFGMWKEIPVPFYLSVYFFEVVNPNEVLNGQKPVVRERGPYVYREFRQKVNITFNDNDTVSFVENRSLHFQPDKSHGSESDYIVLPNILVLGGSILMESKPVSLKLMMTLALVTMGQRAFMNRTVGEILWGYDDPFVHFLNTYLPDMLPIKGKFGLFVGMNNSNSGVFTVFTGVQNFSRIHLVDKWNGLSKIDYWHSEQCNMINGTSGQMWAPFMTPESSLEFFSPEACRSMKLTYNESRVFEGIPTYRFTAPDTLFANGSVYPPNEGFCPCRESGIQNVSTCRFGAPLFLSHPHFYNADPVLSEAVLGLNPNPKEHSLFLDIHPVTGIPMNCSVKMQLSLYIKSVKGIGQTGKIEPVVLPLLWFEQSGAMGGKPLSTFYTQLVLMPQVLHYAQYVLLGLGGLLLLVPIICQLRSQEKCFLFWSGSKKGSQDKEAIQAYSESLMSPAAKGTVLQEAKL

Bcl-2-like protein 10 = target: T3, Bcl-2-like protein 10 (Homo sapiens, UniProt Q9HD36); experiment: displacers of TR3 peptide from Bcl-B, primary screen, selectivity assay for Bfl-1 inhibitor project, biochemical, fluorescence polarization, FITC-TR3 peptide (AID 748);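 also: fluorescence polarization from a fluorescein-labelled TR3 peptide binding purified Bcl-B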
T3 sequence (Q9HD36 whole entry): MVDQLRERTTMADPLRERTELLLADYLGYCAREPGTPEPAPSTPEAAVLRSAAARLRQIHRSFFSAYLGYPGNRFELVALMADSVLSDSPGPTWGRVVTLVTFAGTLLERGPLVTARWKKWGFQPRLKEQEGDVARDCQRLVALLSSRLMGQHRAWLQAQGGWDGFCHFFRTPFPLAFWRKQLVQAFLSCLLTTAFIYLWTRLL

Estrogen receptor = Estrogen receptor (Homo sapiens, UniProt P03372);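 also: potency for inhibiting coactivator peptide recruitment to the receptor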
Estrogen receptor, sequence (P03372 whole entry): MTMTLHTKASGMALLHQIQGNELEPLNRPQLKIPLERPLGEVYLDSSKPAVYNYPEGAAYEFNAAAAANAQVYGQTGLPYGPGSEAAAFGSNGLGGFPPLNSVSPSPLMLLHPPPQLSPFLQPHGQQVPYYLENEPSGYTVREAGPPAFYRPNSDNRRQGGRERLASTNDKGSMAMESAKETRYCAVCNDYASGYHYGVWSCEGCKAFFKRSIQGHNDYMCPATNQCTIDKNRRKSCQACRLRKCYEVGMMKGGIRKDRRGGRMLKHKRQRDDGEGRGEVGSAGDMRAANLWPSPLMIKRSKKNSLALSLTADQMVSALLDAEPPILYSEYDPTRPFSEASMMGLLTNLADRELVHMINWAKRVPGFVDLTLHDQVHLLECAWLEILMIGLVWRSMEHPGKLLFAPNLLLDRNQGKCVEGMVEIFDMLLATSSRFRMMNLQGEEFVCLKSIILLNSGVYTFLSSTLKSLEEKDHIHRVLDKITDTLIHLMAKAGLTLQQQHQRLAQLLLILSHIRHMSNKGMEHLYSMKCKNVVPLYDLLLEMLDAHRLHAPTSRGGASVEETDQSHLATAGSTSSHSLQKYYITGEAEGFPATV

Estrogen receptor beta [7] = target: T4, Estrogen receptor beta (Homo sapiens, UniProt Q92731);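 also: recombinant ER-beta bound to coactivator SRC1 peptide in presence of estradiol agonist; inhibitors block coactivator peptide binding and lower the FRET signal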
T4 sequence (Q92731 whole entry): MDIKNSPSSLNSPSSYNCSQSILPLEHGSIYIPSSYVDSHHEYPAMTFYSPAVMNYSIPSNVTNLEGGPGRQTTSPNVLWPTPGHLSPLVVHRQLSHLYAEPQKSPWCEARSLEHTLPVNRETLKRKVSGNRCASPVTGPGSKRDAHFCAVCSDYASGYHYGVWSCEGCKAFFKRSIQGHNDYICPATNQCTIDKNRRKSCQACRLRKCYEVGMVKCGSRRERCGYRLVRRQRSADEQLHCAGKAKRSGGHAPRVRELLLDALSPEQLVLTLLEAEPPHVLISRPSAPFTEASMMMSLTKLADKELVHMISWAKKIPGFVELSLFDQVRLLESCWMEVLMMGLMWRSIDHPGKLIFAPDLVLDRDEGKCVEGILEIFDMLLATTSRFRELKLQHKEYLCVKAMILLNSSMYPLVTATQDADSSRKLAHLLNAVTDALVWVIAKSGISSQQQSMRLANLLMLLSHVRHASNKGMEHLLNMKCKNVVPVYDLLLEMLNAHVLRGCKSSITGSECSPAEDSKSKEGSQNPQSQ

Estrogen receptor beta [8] = target: T4, Estrogen receptor beta; experiment: ERβ–SRC-3 coactivator interaction inhibitors, confirmation, orthogonal assay, biochemical, ELISA, streptavidin-HRP readout (AID 1060)
[9] = target: T5, Carboxy-terminal domain RNA polymerase II polypeptide A small phosphatase 1 (Homo sapiens, UniProt Q9GZU7); experiment: inhibitors of CTDSP1, concentration-response testing, biochemical assay, absorbance-based, actives from ultra-high-throughput screening (AID 540297); format: functional
T5 sequence (Q9GZU7 whole entry): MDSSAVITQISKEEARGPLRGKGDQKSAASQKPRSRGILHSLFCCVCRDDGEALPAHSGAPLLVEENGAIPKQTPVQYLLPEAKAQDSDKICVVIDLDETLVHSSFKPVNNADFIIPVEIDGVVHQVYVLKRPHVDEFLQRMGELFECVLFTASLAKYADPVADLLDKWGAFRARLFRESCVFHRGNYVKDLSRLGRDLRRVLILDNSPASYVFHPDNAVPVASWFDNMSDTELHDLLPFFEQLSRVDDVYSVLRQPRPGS

BJ [10] = experiment: cytotoxicity toward BJ-TERT fibroblasts, dose response, cell-based, RAS-independent, luminescence (AID 1933); format: functional; details: Homo sapiens
BJ [11] = experiment: cells; format: functional, cell-based; details: Homo sapiens
[12] = inhibitors of intracellular T. cruzi replication, confirmation, NIH3T3 host cells, beta-gal luminescence (AID 2044); format: functional, cell-based;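 also: intracellular parasites grown in NIH/3T3 mouse fibroblasts as host cells; luminescent beta-galactosidase reporter signal from transgenic T. cruzi replicating inside host cells; inhibitors lower the luminescence signal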
[13] = cytotoxicity toward NIH3T3 fibroblasts, dose response, counter-screen, cell-based, ATP luminescence, mouse fibroblasts (AID 2010); format: functional;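 also: cells exposed to compound for about 90 hours before reading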
BJ [14] = experiment: cytotoxicity toward BJ-TERT-LT-ST fibroblasts, dose response, cell-based, RAS-independent, luminescence (AID 1935); format: functional; details: Homo sapiens;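 also: BJ fibroblasts immortalized with TERT plus LT and ST oncogenes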
[15] = cytotoxicity toward DRD oncogenic fibroblasts, dose response, cell-based, non-viral oncogenic, luminescence (AID 1934); format: functional; details: Homo sapiens
[16] = target: T1, Short transient receptor potential channel 4; experiment: mouse TRPC4 channel activators, dose response, cell-based, HEK293 TRPC4/mu-opioid, Fluo-4 calcium (AID 434937); format: functional
Vero = experiment: host cell cytotoxicity of antiviral hits, dose response, cytotoxicity control for West Nile virus antiviral project, secondary assay (AID 1650); format: functional; details: Chlorocebus sabaeus
[17] = target: T6, Tyrosine-protein phosphatase non-receptor type 7 (Homo sapiens, UniProt P35236); experiment: SAR analysis of chemical inhibitors of HePTP using a Fluorescent assay - Set 2. [Related pubchem assays (depositor defined):AID1059, AID1077, AID1661, AID2085, AID521]; format: functional
T6 sequence (P35236 whole entry): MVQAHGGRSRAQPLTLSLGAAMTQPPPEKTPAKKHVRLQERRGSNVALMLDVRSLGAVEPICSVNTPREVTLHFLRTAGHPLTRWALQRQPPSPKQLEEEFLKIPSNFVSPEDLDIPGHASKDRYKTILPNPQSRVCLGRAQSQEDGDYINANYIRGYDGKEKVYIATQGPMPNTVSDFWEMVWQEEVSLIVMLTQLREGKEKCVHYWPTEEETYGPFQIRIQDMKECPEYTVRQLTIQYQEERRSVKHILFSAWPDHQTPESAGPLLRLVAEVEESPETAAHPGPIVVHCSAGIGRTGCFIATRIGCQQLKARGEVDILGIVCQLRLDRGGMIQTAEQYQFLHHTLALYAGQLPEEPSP

[18] = target: Dual specificity protein phosphatase 3 (Homo sapiens, UniProt P51452); experiment: SAR VHR1 Fluorescent Assay for In Vitro dose response studies Set 2. [Related pubchem assays (depositor defined):AID1654, AID1661, AID1878]; format: functional
Dual specificity protein phosphatase 3, sequence (P51452 whole entry): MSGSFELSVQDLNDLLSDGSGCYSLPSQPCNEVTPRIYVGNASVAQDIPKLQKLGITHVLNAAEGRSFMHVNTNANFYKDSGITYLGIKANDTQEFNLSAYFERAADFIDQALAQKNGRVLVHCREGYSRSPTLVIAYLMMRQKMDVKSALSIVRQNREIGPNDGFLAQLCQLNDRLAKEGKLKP

Hexokinase HKDC1 = target: T7, Hexokinase HKDC1 (Homo sapiens, UniProt Q2TB90); experiment: HKDC1 hexokinase inhibitors, dose response, biochemical, W721R variant (AID 504729); format: functional
T7 sequence (Q2TB90 whole entry): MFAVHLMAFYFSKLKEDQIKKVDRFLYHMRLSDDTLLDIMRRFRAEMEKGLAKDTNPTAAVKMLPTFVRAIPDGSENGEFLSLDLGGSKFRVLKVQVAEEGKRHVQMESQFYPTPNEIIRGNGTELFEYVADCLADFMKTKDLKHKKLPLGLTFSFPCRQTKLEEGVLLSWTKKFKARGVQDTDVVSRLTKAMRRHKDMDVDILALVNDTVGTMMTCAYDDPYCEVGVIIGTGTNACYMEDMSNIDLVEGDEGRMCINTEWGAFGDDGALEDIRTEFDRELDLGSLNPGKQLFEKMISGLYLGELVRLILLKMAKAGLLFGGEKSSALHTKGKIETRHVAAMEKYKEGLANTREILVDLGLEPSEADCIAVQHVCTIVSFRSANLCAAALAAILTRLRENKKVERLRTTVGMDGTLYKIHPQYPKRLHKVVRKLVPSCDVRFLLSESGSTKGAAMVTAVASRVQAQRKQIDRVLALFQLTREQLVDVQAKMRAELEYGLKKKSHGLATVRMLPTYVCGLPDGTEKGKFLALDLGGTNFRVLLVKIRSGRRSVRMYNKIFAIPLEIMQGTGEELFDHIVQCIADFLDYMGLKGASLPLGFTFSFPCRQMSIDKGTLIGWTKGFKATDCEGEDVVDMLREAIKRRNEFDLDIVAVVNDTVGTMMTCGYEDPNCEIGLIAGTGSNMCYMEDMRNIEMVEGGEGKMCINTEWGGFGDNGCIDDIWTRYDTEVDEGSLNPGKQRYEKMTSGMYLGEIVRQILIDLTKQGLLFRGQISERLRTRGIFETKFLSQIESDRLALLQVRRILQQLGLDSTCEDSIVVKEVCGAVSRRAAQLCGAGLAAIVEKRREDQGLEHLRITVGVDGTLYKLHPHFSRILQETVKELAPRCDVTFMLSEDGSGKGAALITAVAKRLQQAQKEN

Genome polyprotein = Genome polyprotein (dengue virus type 2, UniProt P29990); experiment: Dengue-2 NS5 methyltransferase inhibitors, primary screen, biochemical, confirmation dose response (AID 588689); format: functional
Genome polyprotein, sequence (P29990 2492-3391 limits assumed): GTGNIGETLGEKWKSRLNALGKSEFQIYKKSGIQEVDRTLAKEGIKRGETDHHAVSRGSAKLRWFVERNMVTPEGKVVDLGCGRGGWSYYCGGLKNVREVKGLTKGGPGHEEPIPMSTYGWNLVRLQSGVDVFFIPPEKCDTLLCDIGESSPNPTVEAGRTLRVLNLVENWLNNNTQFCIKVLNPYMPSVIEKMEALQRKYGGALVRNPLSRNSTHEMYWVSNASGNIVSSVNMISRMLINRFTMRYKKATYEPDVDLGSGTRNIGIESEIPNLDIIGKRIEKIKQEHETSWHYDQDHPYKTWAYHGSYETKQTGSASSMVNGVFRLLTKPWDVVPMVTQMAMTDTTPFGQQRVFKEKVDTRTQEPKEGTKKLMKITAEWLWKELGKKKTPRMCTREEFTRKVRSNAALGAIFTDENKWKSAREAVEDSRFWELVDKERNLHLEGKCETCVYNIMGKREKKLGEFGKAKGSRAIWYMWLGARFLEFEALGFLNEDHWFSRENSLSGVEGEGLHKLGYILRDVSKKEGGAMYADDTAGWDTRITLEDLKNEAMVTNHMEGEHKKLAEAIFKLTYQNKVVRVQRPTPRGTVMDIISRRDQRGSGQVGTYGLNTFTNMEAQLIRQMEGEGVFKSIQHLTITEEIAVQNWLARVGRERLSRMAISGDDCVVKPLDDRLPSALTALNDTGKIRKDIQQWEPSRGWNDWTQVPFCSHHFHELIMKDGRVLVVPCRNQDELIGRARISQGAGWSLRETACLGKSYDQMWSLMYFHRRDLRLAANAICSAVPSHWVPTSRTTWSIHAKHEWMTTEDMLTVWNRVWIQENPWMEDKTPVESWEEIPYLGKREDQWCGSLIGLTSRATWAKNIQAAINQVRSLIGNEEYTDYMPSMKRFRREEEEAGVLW

Aspartyl aminopeptidase, sequence (Q8I2J3 whole entry): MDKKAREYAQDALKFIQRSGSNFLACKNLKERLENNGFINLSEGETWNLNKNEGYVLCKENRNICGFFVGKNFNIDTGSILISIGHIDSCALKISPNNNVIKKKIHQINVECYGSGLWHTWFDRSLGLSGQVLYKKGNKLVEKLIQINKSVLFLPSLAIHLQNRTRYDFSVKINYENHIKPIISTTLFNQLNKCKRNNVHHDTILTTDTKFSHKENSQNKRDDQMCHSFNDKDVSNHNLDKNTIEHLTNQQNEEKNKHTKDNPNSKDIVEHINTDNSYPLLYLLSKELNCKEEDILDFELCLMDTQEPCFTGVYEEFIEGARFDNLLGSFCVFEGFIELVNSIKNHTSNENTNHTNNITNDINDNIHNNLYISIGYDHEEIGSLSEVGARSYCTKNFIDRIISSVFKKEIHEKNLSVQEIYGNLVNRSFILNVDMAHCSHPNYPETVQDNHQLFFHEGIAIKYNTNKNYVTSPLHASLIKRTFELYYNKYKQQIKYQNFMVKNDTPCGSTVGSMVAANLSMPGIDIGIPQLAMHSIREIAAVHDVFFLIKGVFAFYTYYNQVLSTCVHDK
Procathepsin L, sequence (P07711 whole entry): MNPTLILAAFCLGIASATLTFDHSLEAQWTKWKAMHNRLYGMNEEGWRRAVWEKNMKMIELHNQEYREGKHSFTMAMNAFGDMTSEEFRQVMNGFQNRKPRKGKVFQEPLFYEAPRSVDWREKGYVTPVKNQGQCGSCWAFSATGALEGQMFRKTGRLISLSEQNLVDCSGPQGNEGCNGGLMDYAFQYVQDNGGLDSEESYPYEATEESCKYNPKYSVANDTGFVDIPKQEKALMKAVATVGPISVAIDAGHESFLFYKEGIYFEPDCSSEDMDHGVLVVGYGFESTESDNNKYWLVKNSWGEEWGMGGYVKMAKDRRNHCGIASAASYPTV

In the case of `OC(Cn1cnnc1)c1ccccc1` (stereo unspecified), the IC50 (Aspartyl aminopeptidase) is reported as 0.603 µM (active) and the IC50 (Procathepsin L) is reported as > 59.6 µM (not active).
For `COc1ccc(C(c2nnnn2C2CCCC2)N2CCN(c3ccccc3)CC2)cc1` (stereo unspecified), the EC50 [1] was 5.31 µM (active).
With `COc1cc(OC)cc(-c2nc3cc(C)ccc3o2)c1` the IC50 [2] was > 100 µM (inactive), the IC50 [3] was > 100 µM (not active) and the AC50 [4] was 26 µM (active).
In the case of `Cc1ccc(C)n1-c1ccc(C(=O)NCC2CCCO2)cc1` (stereo unspecified), the EC50 [5] is reported as > 50 µM (not active).
For `Cc1c(C)c2cc3c4c(oc3c(C)c2oc1=O)CCCC4`, the EC50 [5] was > 50 µM (not active).
With `O=C(Nc1ccc(F)c(Cl)c1)Nn1cnnc1` the IC50 (Aspartyl aminopeptidase) was 1.46 µM (active) and the IC50 (Procathepsin L) was > 59.6 µM (not active).
For `N#Cc1sc2nc(C3CC3)cc(-c3ccc(Cl)cc3)c2c1N`, the AC50 [6] was 2.36 µM (active).
For `Cc1cc(Cl)ccc1OCC(=O)OC(C)C(=O)N(C)C` (stereo unspecified), the IC50 (Bcl-2-like protein 10) was > 100 µM (inactive), the IC50 (Estrogen receptor) was 37 µM (not active) and the IC50 (Estrogen receptor beta [7]) was 16.7 µM (active). The IC50 (Estrogen receptor beta [8]) was < 0.023 µM (not active) and the IC50 [9] was 15.3 µM (active).
With `Nc1c(C(=O)c2ccccc2)sc2nsc(SCCN3CCCC3)c12` the EC50 (BJ [10]) was 12.8 µM (active), the EC50 (BJ [11]) was 7.28 µM (active) and the EC50 [12] was 0.636 µM (active). For the same compound, the EC50 [13] was 14.9 µM (active), the EC50 (BJ [14]) was 12.5 µM (active) and the EC50 [15] was 15.1 µM (active). For the same compound, the EC50 [16] was 5.96 µM (active).
In the case of `CCc1ccc(NC(=O)C2CCCN(S(=O)(=O)c3ccc4nc(O)ccc4c3)C2)cc1` (stereo unspecified), the AC50 [6] is reported as 27.5 µM (active).
For `O=S(=O)(Nc1cc(Sc2cccc3cccnc23)c(O)c2ccccc12)c1ccccc1`, the EC50 (BJ [10]) was 12.1 µM (inconclusive), the CC50 (Vero) was 6.77 µM (active) and the EC50 (BJ [11]) was 22.1 µM (inconclusive). The EC50 (BJ [14]) was > 75 µM (inconclusive) and the EC50 [15] was 16.1 µM (active).
For `O=C(O)c1cccc(N2C(=O)C3CC=C(Cl)CC3C2=O)c1` (stereo unspecified), the IC50 [2] was > 100 µM (inactive), the IC50 [3] was > 100 µM (not active) and the IC50 [9] was 10.3 µM (active).
With `CCCOc1ccc(C(=S)NCc2ccc(F)cc2)cc1` the IC50 [17] was 19.5 µM (active) and the IC50 [18] was 15.1 µM (active).
For `COc1ccc(OC)c(C(=S)NCc2ccc(F)cc2)c1`, the IC50 [17] was 8.78 µM (active) and the IC50 [18] was 13.5 µM (active).
With `COC1=CC(=O)C(C2CC(=O)c3c(O)cc(O)cc3O2)=CC1=O` (stereo unspecified) the IC50 (Hexokinase HKDC1) was 11.5 µM (active) and the IC50 (Genome polyprotein) was 9.23 µM (active).
In the case of `COc1ccc(-c2nnc(SC/C(O)=C(/C#N)C(C)=N)o2)cc1`, the IC50 (Estrogen receptor) is reported as 30 µM (not active), the IC50 (Estrogen receptor beta [7]) is reported as 11.2 µM (active) and the IC50 (Estrogen receptor beta [8]) is reported as 0.35 µM (not active).
